Results from article PMC9260974 (BMC Pharmacology & Toxicology, 2022).

Experiments:
[1] = in vivo; cited from earlier work
clinical = settings: human, in vivo
Method: (§1) All eligible subjects were assigned according to the random table generated by SAS 9.4 and took the test (T) and reference(R) drugs respectively with 240 ml water after an overnight fast of at least 10 h (fasting study) or after the high-fat breakfast within half an hour before dosing (fed study). […] Subjects were forbidden to drink water within 1 h before and after taking the drug, and the lunch and dinner were provided at 4 h and 8 h respectively post-drug administration. No other food and beverage intake was permitted except the provided diets. […] 4 ml venous blood samples were collected before drug administration and at 1,2,3,4,5,6,7,8,9,10,11,12,13,24,36,48,72,96,144,168 h after administration. The samples were centrifuged at 1700gear per minute for 10 min at 4℃ to separate the plasma, which was divided into two aliquots (drug monitoring at least 800ul and backup) and stored at - 80℃until analysis.
(§2) The lower limit of quantification (LLOQ) was 0.500 ng/mL and the assay dynamic range was 0.500-100 ng/mL.
(§3) Under multiple reaction monitoring, LC–MS/MS system adopts positive ionization mode.
(§4) Data collection and analysis was performed with Analyst 1.6.3 software (Sciex, Canada) and Watson LIMS (Thermo, USA). Calibration curves were constructed using linear regression equation obtained by the weighted (W = 1/X2) least square method fitting for both analytes. Quantitation of quality control and clinical samples were also performed by the Analyst software using the same mathematical algorithm as that used in the calibration of standard curves.
(§5) For the purpose of bioequivalence analysis, the maximum observed concentration (Cmax), the area under the plasma concentration–time curve from time 0 to the last measured time point (AUC0-t), and the area under the plasma concentration–time curve from time 0 to infinity (AUC0-∞) were considered as primary PK parameters. The secondary PK parameters were the observed time to Cmax (Tmax) and the apparent terminal half-life (T1/2). Cmax and Tmax were the factually measured data and AUC0-t was calculated using the linear and logarithmic trapezoidal methods. AUC0-∞ was calculated according to the following formula: AUC0-∞ = AUC0-t + Clast/λz (Clast is the last measurable concentration and is the first order rate constant of terminal elimination determined from a linear regression line after logarithmic transformation at the end of concentration time curve. λz is the slope calculated by linear regression after logarithmic conversion at the end of the concentration–time curve). T1/2 was calculated to be ln2/λ.
(§6) Statistical analysis was performed by SAS 9.4. Demographic characteristics, safety parameters and pharmacokinetic data were summarized using descriptive statistics, the results were presented as the mean ± SD and the differences between groups were determined by two one-sided tests. […] AUC and Cmax were logarithmically transformed and analyzed by linear mixed effect model. Sequence, period and formulation were fixed effects, and subject within sequence was included as a random effect. Analysis of variance (ANOVA) of cross-over design was performed on the log-transformed variables. […] Bioequivalence was assessed separately in both the fasting and fed groups.

[2] = Single-dose two-period crossover bioequivalence study, fasting: plasma pharmacokinetics of lisinopril and amlodipine (LC-MS/MS, NCA); settings: for concentration at 0 h / concentration at 1 h / concentration at 2 h / concentration at 3 h / concentration at 4 h / concentration at 5 h / concentration at 6 h / concentration at 7 h / concentration at 8 h / concentration at 9 h / concentration at 10 h / concentration at 11 h / concentration at 12 h / concentration at 13 h / concentration at 24 h / concentration at 36 h / concentration at 48 h / concentration at 72 h / concentration at 96 h / concentration at 144 h / concentration at 168 h: human, plasma, po, Plasma concentration of amlodipine, reference (R) tablets; for concentration at 0 h: nominal time 0 h; for concentration at 1 h: nominal time 1 h; for concentration at 2 h: nominal time 2 h; for concentration at 3 h: nominal time 3 h; for concentration at 4 h: nominal time 4 h; for concentration at 5 h: nominal time 5 h; for concentration at 6 h: nominal time 6 h; for concentration at 7 h: nominal time 7 h; for concentration at 8 h: nominal time 8 h; for concentration at 9 h: nominal time 9 h; for concentration at 10 h: nominal time 10 h; for concentration at 11 h: nominal time 11 h; for concentration at 12 h: nominal time 12 h; for concentration at 13 h: nominal time 13 h; for concentration at 24 h: nominal time 24 h; for concentration at 36 h: nominal time 36 h; for concentration at 48 h: nominal time 48 h; for concentration at 72 h: nominal time 72 h; for concentration at 96 h: nominal time 96 h; for concentration at 144 h: nominal time 144 h; for concentration at 168 h: nominal time 168 h
Method: as §1, §2, §3, §4, §5, §6

[3] = amlodipine, intra-subject coefficient of variation

## CCOC(=O)C1=C(COCCN)NC(C)=C(C(=O)OC)C1c1ccccc1Cl (centres unmarked) [amlodipine]
[1]
  Absorption: almost completely absorbed
clinical
  Tmax: ~6 h
[2]; [3]
  Intra-CV (%) of AUC0-t: 9.9%
  Intra-CV (%) of AUC0-∞: 10.5%
  Intra-CV (%) of Cmax: 9.7%
[2]; Max, maximum over subjects
  concentration at 0 h: 0 ng/mL
  concentration at 1 h: 2.24 ng/mL
  concentration at 2 h: 2.57 ng/mL
  concentration at 3 h: 3.08 ng/mL
  concentration at 4 h: 2.45 ng/mL
  concentration at 5 h: 2.98 ng/mL
  concentration at 6 h: 4.18 ng/mL
  concentration at 7 h: 2.76 ng/mL
  concentration at 8 h: 3.48 ng/mL
  concentration at 9 h: 3.04 ng/mL
  concentration at 10 h: 2.86 ng/mL
  concentration at 11 h: 2.92 ng/mL
  concentration at 12 h: 2.98 ng/mL
  concentration at 13 h: 2.75 ng/mL
  concentration at 24 h: 2.45 ng/mL
  concentration at 36 h: 1.96 ng/mL
  concentration at 48 h: 1.69 ng/mL
  concentration at 72 h: 1.21 ng/mL
  concentration at 96 h: 1.11 ng/mL
  concentration at 144 h: 0.574 ng/mL
  concentration at 168 h: 0.455 ng/mL
[2]; Mean, mean of subjects
  concentration at 0 h: 0 ng/mL
  concentration at 1 h: 0.686 ng/mL
  concentration at 2 h: 1.24 ng/mL
  concentration at 3 h: 1.51 ng/mL
  concentration at 4 h: 1.6 ng/mL
  concentration at 5 h: 2.03 ng/mL
  concentration at 6 h: 2.16 ng/mL
  concentration at 7 h: 2.04 ng/mL
  concentration at 8 h: 2.08 ng/mL
  concentration at 9 h: 1.96 ng/mL
  concentration at 10 h: 1.85 ng/mL
  concentration at 11 h: 1.77 ng/mL
  concentration at 12 h: 1.74 ng/mL
  concentration at 13 h: 1.65 ng/mL
  concentration at 24 h: 1.41 ng/mL
  concentration at 36 h: 1.13 ng/mL
  concentration at 48 h: 0.928 ng/mL
  concentration at 72 h: 0.64 ng/mL
  concentration at 96 h: 0.446 ng/mL
  concentration at 144 h: 0.2 ng/mL
  concentration at 168 h: 0.137 ng/mL
[2]; Min, minimum over subjects
  concentration at 0 h: 0 ng/mL
  concentration at 1 h: 0.26 ng/mL
  concentration at 2 h: 0.452 ng/mL
  concentration at 3 h: 0.598 ng/mL
  concentration at 4 h: 0.834 ng/mL
  concentration at 5 h: 1.26 ng/mL
  concentration at 6 h: 1.14 ng/mL
  concentration at 7 h: 1.03 ng/mL
  concentration at 8 h: 0.988 ng/mL
  concentration at 9 h: 0.918 ng/mL
  concentration at 10 h: 0.806 ng/mL
  concentration at 11 h: 0.82 ng/mL
  concentration at 12 h: 0.829 ng/mL
  concentration at 13 h: 0.812 ng/mL
  concentration at 24 h: 0.603 ng/mL
  concentration at 36 h: 0.482 ng/mL
  concentration at 48 h: 0.391 ng/mL
  concentration at 72 h: 0.226 ng/mL
  concentration at 96 h: 0.123 ng/mL
  concentration at 144 h: 0 ng/mL
  concentration at 168 h: 0 ng/mL
